Data from patent publication US20240228490A1, “HETEROCYCLIC DERIVATIVE INHIBITOR AND PREPARATION METHOD THEREFOR AND APPLICATION THEREOF” (Shanghai Hansoh Biomedical Co., Ltd., priority 2021, published 2024).

Tests used:
PAR in tumor tissue = experiment: PD part of PK/PD study in MDA-MB-436 subcutaneous xenograft model: inhibition of PAR in tumor tissue (Western blot); format: in vivo, BALB/c nude mice; conditions: within 24 hours after a single administration, MDA-MB-436 model
Protocol: • a. Grouping: According to the growth of the tumor, when the tumor grew to a volume of 300-500 mm^3, tumor-bearing mice were selected according to the experimental design and randomly grouped (3 mice per each time point) to start the PK/PD test. • b. Fasting: All tumor-bearing mice were fasted (with free access to water) overnight (fasting >8 hours) before the administration. • c. Administration: Except for the blank control group, a single oral administration was carried out according to the time of the experimental design, and the administration volume was 10 mL/kg. • d. Sample collection: The mice were euthanized by CO2 asphyxiation according to the time of the experimental design, and the samples were collected. One plasma sample and three tumor tissue samples were collected from each animal.
Tumor tissue collection: After the blood collection, the tumor tissue was collected. The collected tumor tissue was divided into 3 aliquots (˜0.1 g each), placed into labeled 2 mL centrifuge tubes, and stored in a refrigerator at −80±10° C. for PK or PD test.
1 mL of tumor lysis solution was added to each tube of tumor tissue sample, followed by the addition of steel beads. […]
Protein quantification was performed by BCA protein quantification kit. […]
c. […] PAR was subjected to fluorescence imaging, and Gapdh internal control was subjected to fluorescence imaging using IRDye 800 CW channel.

[1] = tested on: BRCA2 Knockout DLD-1 cells; experiment: Inhibition of proliferation of BRCA2 Knockout DLD-1 cells (CellTiter-Glo); format: cell-based; conditions: Homo sapiens, about 144 hours incubation
Protocol: BRCA2 Knockout DLD-1 cells were cultured using RPMI1640 culture medium containing 10% FBS to an appropriate cell density. The cells were collected, and adjusted to an appropriate cell concentration using the complete culture medium. The cell suspension was spread on a 96-well plate (90 μL per well), and placed in a 37° C., 5% CO2 incubator overnight. Compound solutions of different concentrations were formulated using DMSO and culture medium, and vehicle control was set up. The compound solutions were added to the 96-well plate (10 μL per well), and the plate was incubated in a 37° C., 5% CO2 incubator for about 144 hours. CellTiter-Glo solution was added, and the plate was shaken to mix evenly, and incubated in the dark for 10 to 30 minutes. The values were measured with a Synergy H1 or Envision microplate reader.
The inhibition rate was calculated using the luminescence signal value. The concentration and inhibition rate were fitted to a nonlinear regression curve using Graphpad Prism software to obtain the IC50 value.

[2] = Bidirectional permeability through Caco-2 cell model; conditions: human
Protocol: (§1) 100 μL of transport buffer (HBSS containing 10 μM test compound, 0.5% BSA, and 0.5% DMSO) was added to the administration end of A to B • b. 300 μL of transport buffer (HBSS containing 0.5% BSA) was added to the receiving end of A to B • c. 300 μL of transport buffer (HBSS containing 10 μM test compound, 0.5% BSA, and 0.5% DMSO) was added to the administration end of B to A • d. 100 μL of transport buffer (HBSS containing 0.5% BSA) was added to the receiving end of B to A • e. Incubation for 2 hours • d. Samples were taken, processed and detected by mass spectrometry.
(§2) • Instrument: liquid chromatography; • Chromatographic column: Waters XSelect HSS T3 C18 (2.1*50 mm, 2.5 μm); • Mobile phase: phase A: water containing 0.1% formic acid; phase B: acetonitrile containing 0.1% formic acid.
(§3) • Instrument: API4000 liquid chromatography-mass spectrometer; • Ion source: electrospray ionization source (ESI); • Detection method: positive ion detection; • Scan mode: multiple reaction monitoring (MRM) mode.

[3] = tested on: human colorectal cancer cell line DLD-1 BRCA2−/− subcutaneous xenograft tumor; experiment: In vivo pharmacodynamic study in DLD-1 BRCA2−/− subcutaneous xenograft tumor model; conditions: oral, once/day, 21 days
Protocol: BALB/c nude mice, 6 to 8 weeks old, 9, purchased from the Experimental Animal Management Department of Shanghai Institute of Family Planning
The recovered cells were plated in a cell culture flask (the cell type, date, name of the experimenter and the like were labeled on the wall of the flask), and cultured in a CO2 incubator (the temperature was 37° C. and the CO2 concentration was 5% in the incubator). • b. Cells were passaged once every three days. After passage, the cells continued to be cultured in the CO2 incubator. This process was repeated until the number of cells was sufficient for the in vivo efficacy test. • c. The cultured cells were collected, and counted with an automatic cell counter. According to the counting results, the cells were resuspended with PBS to obtain a cell suspension (density: 5×10^7/mL), which was placed in an ice box for later use.
The nude mice were labeled with disposable universal ear tags for rats and mice before inoculation. • b. During the inoculation, the cell suspension was mixed well. 0.1 to 1 mL of the cell suspension was drawn with a 1 mL syringe, air bubbles were removed, and then the syringe was placed on an ice pack for later use. • c. The nude mouse was bound with the left hand. The position on the right side of the back close to the right shoulder of the nude mouse (inoculation site) was disinfected with 75% alcohol. Inoculation started after 30 seconds. • d. The test nude mice were successively inoculated (each mouse was inoculated with 0.1 mL of cell suspension).
According to the tumor growth, the tumor was measured on 10 to 18 days after the inoculation, and the tumor size was calculated.
Calculation of tumor volume: tumor volume (mm^3)=length (mm)×width (mm)×width (mm)/2 • b. The tumor-bearing mice were grouped according to their body weight and tumor size by random grouping. • c. […] Tumors were measured and the mice were weighed twice a week after the administration of test compounds began. • e. Animals were euthanized at the end of the experiment. • f. Data were processed by using softwares such as Excel.

[4] = Pharmacokinetic assay in Balb/C mice; conditions: male, mouse, plasma, po, 1 mg/kg
Protocol: Balb/C mice were used as test animals.
(§4) Male Balb/C mice (6 mice per example), purchased from Shanghai Jiesijie Laboratory Animal Co., LTD, with Certificate No.: SCXK (Shanghai) 2013-0006 N0.311620400001794.
(§5) 5 g of hydroxyethyl cellulose (HEC, CMC-Na, viscosity: 800-1200 Cps) was weighed and dissolved in 1000 mL of purified water, followed by the addition of 10 g of Tween 80. The mixture was mixed well to obtain a clear solution.
(§6) 2.05 mg of the compound was weighed and dissolved in the solution. The mixture was shaken well, crushed in a cell crusher for 1 minute, and sonicated for 15 minutes to obtain a suspension with a concentration of 0.1 mg/mL.
(§7) After an overnight fast, male Balb/C mice were administered p.o. with the test compound at a dose of 1 mg/kg and a volume of 10 mL/kg.
(§8) 0.04 mL of blood was taken from the orbit of the mouse at 0, 0.5, 1, 2, 4, 6, 8 and 24 hours after the administration. The samples were stored in EDTA-K2 tubes, and centrifuged for 6 minutes at 4° C., 6000 rpm to separate the plasma. The plasma samples were stored at −80° C. The mouse was fed 4 hours after the administration.
(§9) • Liquid chromatography condition: Shimadzu LC-20AD pump • Mass spectrometry condition: AB Sciex API 4000 mass spectrometer • Chromatographic column: phenomenex Gemiu 5 μm C18 50×4.6 mm • Mobile phase: Eluent A was 0.1% formic acid in water, and Eluent B was acetonitrile • Flow rate: 0.8 mL/min • Elution time: 0-4.0 minutes, the eluent is as follows:
(§10) The main parameters of pharmacokinetics were calculated by WinNonlin 8.2.

PARP1 enzyme = PARP1 enzyme (Homo sapiens (Human), UniProt P09874); experiment: Inhibitory activity on PARP1 enzyme (chemiluminescence); format: biochemical
Sequence of PARP1 enzyme (P09874 whole entry): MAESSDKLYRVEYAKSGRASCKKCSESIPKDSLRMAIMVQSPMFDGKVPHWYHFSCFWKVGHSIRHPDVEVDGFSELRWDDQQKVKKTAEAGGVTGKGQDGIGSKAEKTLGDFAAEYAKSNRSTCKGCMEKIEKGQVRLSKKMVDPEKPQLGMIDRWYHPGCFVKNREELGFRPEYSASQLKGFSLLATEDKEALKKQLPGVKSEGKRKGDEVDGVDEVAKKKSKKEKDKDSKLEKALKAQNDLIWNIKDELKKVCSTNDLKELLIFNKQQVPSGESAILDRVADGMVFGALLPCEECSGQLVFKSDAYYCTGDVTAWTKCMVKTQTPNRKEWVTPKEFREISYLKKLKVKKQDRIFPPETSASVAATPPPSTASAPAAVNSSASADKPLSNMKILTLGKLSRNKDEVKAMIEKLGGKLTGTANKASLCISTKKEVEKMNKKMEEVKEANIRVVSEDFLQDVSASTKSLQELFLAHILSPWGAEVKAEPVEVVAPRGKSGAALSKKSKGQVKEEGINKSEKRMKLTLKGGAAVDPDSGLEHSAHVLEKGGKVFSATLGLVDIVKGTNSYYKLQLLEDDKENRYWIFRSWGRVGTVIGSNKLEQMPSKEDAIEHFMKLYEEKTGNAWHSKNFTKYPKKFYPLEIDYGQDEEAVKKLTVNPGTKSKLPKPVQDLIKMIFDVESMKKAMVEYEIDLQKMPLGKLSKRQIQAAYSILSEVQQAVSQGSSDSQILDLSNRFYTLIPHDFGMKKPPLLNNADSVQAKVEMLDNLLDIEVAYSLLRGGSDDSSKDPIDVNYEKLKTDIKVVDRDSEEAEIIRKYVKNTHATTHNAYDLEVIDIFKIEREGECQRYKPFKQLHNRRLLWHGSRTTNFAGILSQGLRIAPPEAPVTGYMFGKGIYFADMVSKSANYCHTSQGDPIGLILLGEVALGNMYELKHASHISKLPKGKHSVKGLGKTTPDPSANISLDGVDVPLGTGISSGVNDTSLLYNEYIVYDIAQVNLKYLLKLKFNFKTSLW
Protocol: The inhibitory activity of the compounds on PARP1 enzyme was determined by the chemiluminescence method in the experiment. The experiment was carried out in a 384-well plate. Coating histones in a 384-well plate: 5×histone solution was diluted 5 folds with PBS, added to a 384-well ELISA plate (25 μL per well), and incubated at 4° C. overnight. […] A mixture of PARP reaction biotin-labeled substrate, activated DNA, 10×PARP buffer and water was added (12.5 μL per well). Compound solutions with different concentrations were formulated using the experimental buffer (10% DMSO aqueous solution containing 1.25 mM DTT). The final detection concentration started from 100 nM, with 3-fold dilution and 8 concentrations. The compound solutions were added to the reaction wells of the 384-well plate (2.5 μL per well). 2.5 μL of 10% DMSO aqueous solution containing 1.25 mM DTT was added to the positive control well and blank well (2.5 μL per well). […] The plate was centrifuged at 1000 rpm for 1 minute, and reacted at room temperature for 60 minutes. […] Streptavidin-HRP solution diluted 50 folds with Blocking buffer 3 was added (25 μL per well), and the plate was incubated at room temperature for 30 minutes. […] The luminescence reaction solution obtained by mixing ECL substrate A and ELISA ECL substrate B (1:1) was added (50 μL per well) for reaction. The chemiluminescence values were measured immediately with a BioTek Synergy H1 or Envision instrument.
The chemiluminescence values were measured with a BioTek Synergy H1 or Envision instrument. The inhibition rate was calculated, and the concentration and inhibition rate were fitted to a nonlinear regression curve using Graphpad Prism software to obtain the IC50 value.

in vitro = conditions: human, Caco-2
Protocol: as §1, §2, §3

in vivo = conditions: male, Balb/C, mouse, po, 1 mg/kg
Protocol: Balb/C mice were used as test animals.
as §4, §5, §6, §7, §8, §9, §10

Structure (SMILES)	Inhibition of intratumoral PAR compared with AZD5305 (PAR in tumor tissue)	IC50 [1] [nM]	Papp A→B at 2 h, 10 μM [2] [×10⁻⁶ cm/s]	Papp B→A at 2 h, 10 μM [2] [×10⁻⁶ cm/s]	Animal's body weight [3]	Tumor growth inhibition rate TGI (%) [3] [%]	AUC(0-t) [4] [ng·h/mL]	Cmax [4] [ng/mL]	Tmax [4] [h]	half-life [4] [h]	IC50 (PARP1 enzyme) [nM]	efflux ratio at 2 h, 10 μM [2]	Papp A→B at 2 h, 10 μM (in vitro) [×10⁻⁶ cm/s]	Papp B→A at 2 h, 10 μM (in vitro) [×10⁻⁶ cm/s]	efflux ratio at 2 h, 10 μM (in vitro)	AUC(0-t) (in vivo) [ng·h/mL]	Cmax (in vivo) [ng/mL]	Tmax (in vivo) [h]	half-life (in vivo) [h]
CCc1cc2ncc(CN3CC=C(c4ccc(C(=O)NC)nc4)CC3)cc2[nH]c1=O [Example 1, 1′-((7-Ethyl-6-oxo-5,6-dihydro-1,5-naphthyridin-3-yl)methyl)-N-methyl-1′,2′,3′,6′-tetrahydro-[3,4′-bipyridine]-6-carboxamide]	comparable	1.2	12.8	19.2	no significant decrease	> 90	119000	9930	1	6.9	0.93								
CCc1cc2ncc(CN3CCN(c4cnc5c(NC)nccc5c4)CC3)cc2[nH]c1=O [Example 3, 3-Ethyl-7-((4-(8-(methylamino)-1,7-naphthyridin-3-yl)piperazin-1-yl)methyl)-1,5-naphthyridin-2(1H)-one]			7.15	24.1	no significant decrease	> 90	12700	1570	0.5	3.7	0.4	3.4							
CCc1cc2ncc(CN3CC=C(c4ccc(C(=O)NC5CC5)nc4)CC3)cc2[nH]c1=O [Example 29, N-Cyclopropyl-1′-((7-ethyl-6-oxo-5,6-dihydro-1,5-naphthyridin-3-yl)methyl)-1′,2′,3′,6′-tetrahydro-[3,4′-bipyridine]-6-carboxamide]		1.9	12.2	19	no significant decrease	> 90	60600	8270	0.5	3.7	0.98	1.6							
CCc1cc2ncc(CN3CC=C(c4ccc(C(=O)NC)nc4C#N)CC3)cc2[nH]c1=O [Example 35, 2-Cyano-1′-((7-ethyl-6-oxo-5,6-dihydro-1,5-naphthyridin-3-yl)methyl)-N-methyl-1′,2′,3′,6′-tetrahydro-[3,4′-bipyridine]-6-carboxamide]		2.3				> 90					1		5.19	15.7	3	43200	6100	0.5	2.7
CCc1cc2ncc(CN3CC=C(c4ccc(C(=O)NC)nc4F)CC3)cc2[nH]c1=O [Example 36, 1′-((7-Ethyl-6-oxo-5,6-dihydro-1,5-naphthyridin-3-yl)methyl)-2-fluoro-N-methyl-1′,2′,3′,6′-tetrahydro-[3,4′-bipyridine]-6-carboxamide]		1.6	14.8	15.6			61900	6550	0.5	4.6	0.8	1.1							
CNC(=O)c1ccc(C2=CCN(Cc3cnc4cc(C5CC5)c(=O)[nH]c4c3)CC2)cn1 [Example 45, 1′-((7-Cyclopropyl-6-oxo-5,6-dihydro-1,5-naphthyridin-3-yl)methyl)-N-methyl-1′,2′,3′,6′-tetrahydro-[3,4′-bipyridine]-6-carboxamide]		3.5									0.8		9.8	15.3	1.6	221000	8980	1	23
CCc1cc2ncc(CN3CC=C(c4cnc(C(=O)NC)s4)CC3)cc2[nH]c1=O [Example 46, 5-(1-((7-Ethyl-6-oxo-5,6-dihydro-1,5-naphthyridin-3-yl)methyl)-1,2,3,6-tetrahydropyridin-4-yl)-N-methylthiazole-2-carboxamide]						> 90					0.6								
CCc1cc2ncc(CN3CCN(c4cnc5c(NC)nc(C)cc5c4)CC3)cc2[nH]c1=O [Example 72, 3-Ethyl-7-((4-(6-methyl-8-(methylamino)-1,7-naphthyridin-3-yl)piperazin-1-yl)methyl)-1,5-naphthyridin-2(1H)-one]		4.8	5.23	12.7								2.5							
